Test results taken from US20250034216A1, “STEREOSELECTIVE COVALENT LIGANDS FOR ONCOGENIC AND IMMUNOLOGICAL PROTEINS” (The Scripps Research Institute, priority 2021, published 2025).

Columns and labels:
[1] = target: T1, CNOT4_C175 (Homo sapiens, UniProt O95628); assay: IA-DTB cysteine engagement; assay type: binding; settings: 22Rv1 cells, 20 μM probe, 1 h, relative to DMSO
T1 construct: endogenous in cells; host or cells: 22Rv1
T1 sequence (O95628 1-575): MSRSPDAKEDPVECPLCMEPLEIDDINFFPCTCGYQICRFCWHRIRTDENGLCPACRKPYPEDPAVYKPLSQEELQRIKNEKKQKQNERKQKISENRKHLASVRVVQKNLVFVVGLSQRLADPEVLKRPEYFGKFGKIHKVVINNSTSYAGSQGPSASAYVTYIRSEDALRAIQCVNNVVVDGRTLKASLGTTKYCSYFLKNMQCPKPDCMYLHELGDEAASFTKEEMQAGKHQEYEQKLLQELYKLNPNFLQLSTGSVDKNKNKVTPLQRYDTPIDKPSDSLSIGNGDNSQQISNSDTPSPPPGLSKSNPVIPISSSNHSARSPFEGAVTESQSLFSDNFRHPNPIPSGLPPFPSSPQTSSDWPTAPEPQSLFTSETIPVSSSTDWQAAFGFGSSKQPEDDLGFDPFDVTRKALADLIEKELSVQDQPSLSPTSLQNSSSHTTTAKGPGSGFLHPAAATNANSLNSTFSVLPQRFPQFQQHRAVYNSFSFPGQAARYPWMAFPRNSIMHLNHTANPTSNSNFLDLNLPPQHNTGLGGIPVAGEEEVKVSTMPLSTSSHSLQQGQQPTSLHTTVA
Outline: (§1)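 Cells were treated in situ with electrophilic probes, then lysed, and the lysates (2 mg/mL protein) were labeled with IA-DTB for 1 h at ambient temperature. After reduction, alkylation and trypsin digestion, labeled peptides were streptavidin-enriched, TMT-labeled and fractionated. Engagement ratios are probe vs DMSO reporter intensities, averaged across replicates.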

[2] = target: T2, RETSAT_C547 (Homo sapiens, UniProt Q6NUM9); assay: IA-DTB cysteine engagement; assay type: binding; settings: 22Rv1 cells, 20 μM probe, 1 h, relative to DMSO
T2 construct: endogenous in cells; host or cells: 22Rv1
T2 sequence (Q6NUM9 19-610): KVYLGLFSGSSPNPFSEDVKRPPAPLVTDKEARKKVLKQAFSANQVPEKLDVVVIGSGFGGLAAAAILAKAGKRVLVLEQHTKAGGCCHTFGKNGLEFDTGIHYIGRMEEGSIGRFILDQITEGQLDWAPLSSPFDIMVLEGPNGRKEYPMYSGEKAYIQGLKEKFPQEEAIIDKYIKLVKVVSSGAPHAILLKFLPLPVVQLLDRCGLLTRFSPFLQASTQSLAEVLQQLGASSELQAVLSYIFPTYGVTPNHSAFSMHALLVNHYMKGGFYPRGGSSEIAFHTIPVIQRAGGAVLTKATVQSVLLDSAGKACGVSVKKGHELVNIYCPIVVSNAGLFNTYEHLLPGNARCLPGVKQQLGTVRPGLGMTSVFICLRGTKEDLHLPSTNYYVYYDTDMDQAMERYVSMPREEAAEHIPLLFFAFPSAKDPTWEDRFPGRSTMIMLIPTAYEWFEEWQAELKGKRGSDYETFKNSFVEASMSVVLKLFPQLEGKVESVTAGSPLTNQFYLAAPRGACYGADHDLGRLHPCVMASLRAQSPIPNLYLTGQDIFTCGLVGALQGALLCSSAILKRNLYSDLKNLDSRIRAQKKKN
Outline: as §1

SMILES: C=CC(=O)N1C[C@@H](c2ccc(Br)cc2)[C@H]1C(=O)Nc1cccc2cccnc12 [MY-1A, (2S,3R)-1-acryloyl-3-(4-bromophenyl)-N-(quinolin-8-yl)azetidine-2-carboxamide]
- % engagement CNOT4_C175 [1]: 0%
- % engagement RETSAT_C547 [2]: 80%

SMILES: C=CC(=O)N1C[C@H](c2ccc(Br)cc2)[C@@H]1C(=O)Nc1cccc2cccnc12 [MY-1B, (2R,3S)-1-acryloyl-3-(4-bromophenyl)-N-(quinolin-8-yl)azetidine-2-carboxamide]
- % engagement CNOT4_C175 [1]: −15%
- % engagement RETSAT_C547 [2]: 66.75%

SMILES: C=CC(=O)N1C[C@H](c2ccc(Br)cc2)[C@H]1C(=O)Nc1cccc2cccnc12 [MY-3A, (2S,3S)-1-acryloyl-3-(4-bromophenyl)-N-(quinolin-8-yl)azetidine-2-carboxamide]
- % engagement CNOT4_C175 [1]: 76.5%
- % engagement RETSAT_C547 [2]: 53.5%

SMILES: C=CC(=O)N1C[C@H](c2ccc(Br)cc2)[C@H]1C(=O)Nc1cccc2cccnc12 [MY-3B, (2S,3S)-1-acryloyl-3-(4-bromophenyl)-N-(quinolin-8-yl)azetidine-2-carboxamide]
- % engagement CNOT4_C175 [1]: 76%
- % engagement RETSAT_C547 [2]: 71.25%
